In ChEMBL document CHEMBL5058646 (2022) one finds Tm, LogFC and inhibition data, which are given here for one compound.

Experiment [1] concerns the target Glycogen synthase kinase-3 beta (Homo sapiens) (UniProt P49841). In words: GSK3B SGC Tm panel (DSF). As to conditions: Compound concentration 20.0 uM.
Experiment [2] concerns the target T1, Telomere zinc finger-associated protein (Homo sapiens) (UniProt P10074).
T1 sequence (whole entry): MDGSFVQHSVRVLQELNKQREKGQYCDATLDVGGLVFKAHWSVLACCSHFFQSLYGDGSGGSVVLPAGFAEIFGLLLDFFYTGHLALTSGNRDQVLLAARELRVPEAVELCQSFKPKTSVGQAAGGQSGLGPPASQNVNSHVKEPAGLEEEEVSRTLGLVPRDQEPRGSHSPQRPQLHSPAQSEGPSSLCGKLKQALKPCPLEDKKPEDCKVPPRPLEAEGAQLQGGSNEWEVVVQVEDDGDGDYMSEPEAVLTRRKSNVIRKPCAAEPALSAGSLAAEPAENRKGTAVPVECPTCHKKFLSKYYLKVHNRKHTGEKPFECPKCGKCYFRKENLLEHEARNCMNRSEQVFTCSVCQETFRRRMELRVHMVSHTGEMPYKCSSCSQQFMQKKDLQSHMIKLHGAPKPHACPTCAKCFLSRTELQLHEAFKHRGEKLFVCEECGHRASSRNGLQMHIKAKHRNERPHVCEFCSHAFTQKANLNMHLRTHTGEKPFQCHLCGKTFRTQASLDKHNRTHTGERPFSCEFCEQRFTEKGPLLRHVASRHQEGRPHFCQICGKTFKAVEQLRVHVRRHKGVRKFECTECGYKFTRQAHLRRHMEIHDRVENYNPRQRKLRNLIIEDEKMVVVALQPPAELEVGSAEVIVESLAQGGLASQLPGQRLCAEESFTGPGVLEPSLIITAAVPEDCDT
Conditions: OCI-Ly1, Compound concentration 1.0 uM.

Experiment [3] deals with Adenosine receptor A2a (Homo sapiens) (UniProt P29274). Kind of experiment: GPCRScan assay: inhibition of A2A. As to conditions: Compound concentration 10.0 uM.
Adenosine receptor A2a (Homo sapiens), sequence (P29274 whole entry): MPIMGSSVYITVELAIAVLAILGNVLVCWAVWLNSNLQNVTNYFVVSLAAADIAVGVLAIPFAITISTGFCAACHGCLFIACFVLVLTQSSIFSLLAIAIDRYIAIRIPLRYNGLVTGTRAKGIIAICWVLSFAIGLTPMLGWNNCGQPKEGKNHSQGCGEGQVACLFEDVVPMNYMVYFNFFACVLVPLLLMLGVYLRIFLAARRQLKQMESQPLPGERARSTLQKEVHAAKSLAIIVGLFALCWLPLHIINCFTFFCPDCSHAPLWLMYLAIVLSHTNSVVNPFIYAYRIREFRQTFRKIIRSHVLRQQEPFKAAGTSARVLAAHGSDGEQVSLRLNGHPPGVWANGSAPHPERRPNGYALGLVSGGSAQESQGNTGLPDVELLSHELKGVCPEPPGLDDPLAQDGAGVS
Experiment [4] has as its target Alpha-1B adrenergic receptor (Homo sapiens) (UniProt P35368). As to conditions: Compound concentration 10.0 uM.
Experiment [5] addresses Dual specificity mitogen-activated protein kinase kinase 4 (Homo sapiens) (UniProt P45985). Kind of experiment: MAP2K4 SGC Tm panel (DSF). As to conditions: Compound concentration 20.0 uM.
In experiment [6] the target is Sigma non-opioid intracellular receptor 1 (Homo sapiens) (UniProt Q99720). As to conditions: Compound concentration 10.0 uM.
Experiment [7] addresses Muscarinic acetylcholine receptor M2 (Homo sapiens) (UniProt P08172). Conditions: Compound concentration 10.0 uM.
Experiment [8] has as its target Serine/threonine-protein kinase 17A (Homo sapiens) (UniProt Q9UEE5). In words: STK17A SGC Tm panel (DSF). As to conditions: Compound concentration 20.0 uM.
In experiment [9] the target is Aurora kinase B (Homo sapiens) (UniProt Q96GD4). Kind of experiment: AURKB SGC Tm panel (DSF). Conditions: Compound concentration 20.0 uM.
Aurora kinase B (Homo sapiens), sequence (Q96GD4 whole entry): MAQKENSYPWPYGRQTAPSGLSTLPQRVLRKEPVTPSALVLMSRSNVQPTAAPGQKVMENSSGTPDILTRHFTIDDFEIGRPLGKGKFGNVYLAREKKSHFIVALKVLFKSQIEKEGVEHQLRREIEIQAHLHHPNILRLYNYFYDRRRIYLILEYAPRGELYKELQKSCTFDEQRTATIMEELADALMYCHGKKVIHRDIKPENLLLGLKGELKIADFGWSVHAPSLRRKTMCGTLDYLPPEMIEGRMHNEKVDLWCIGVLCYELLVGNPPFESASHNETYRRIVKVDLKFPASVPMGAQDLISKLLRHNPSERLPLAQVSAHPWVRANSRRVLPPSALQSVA
The target in experiment [10] is Dual specificity tyrosine-phosphorylation-regulated kinase 2 (Homo sapiens) (UniProt Q92630). In words: DYRK2 SGC Tm panel (DSF). Conditions: Compound concentration 20.0 uM.
Experiment [11] deals with Zinc finger and BTB domain-containing protein 17 (Homo sapiens) (UniProt Q13105). As to conditions: SUD4, Compound concentration 1.0 uM.
Experiment [12] deals with 5-hydroxytryptamine receptor 2B (Homo sapiens) (UniProt P41595). As to conditions: Compound concentration 10.0 uM.
5-hydroxytryptamine receptor 2B (Homo sapiens), sequence (P41595 whole entry): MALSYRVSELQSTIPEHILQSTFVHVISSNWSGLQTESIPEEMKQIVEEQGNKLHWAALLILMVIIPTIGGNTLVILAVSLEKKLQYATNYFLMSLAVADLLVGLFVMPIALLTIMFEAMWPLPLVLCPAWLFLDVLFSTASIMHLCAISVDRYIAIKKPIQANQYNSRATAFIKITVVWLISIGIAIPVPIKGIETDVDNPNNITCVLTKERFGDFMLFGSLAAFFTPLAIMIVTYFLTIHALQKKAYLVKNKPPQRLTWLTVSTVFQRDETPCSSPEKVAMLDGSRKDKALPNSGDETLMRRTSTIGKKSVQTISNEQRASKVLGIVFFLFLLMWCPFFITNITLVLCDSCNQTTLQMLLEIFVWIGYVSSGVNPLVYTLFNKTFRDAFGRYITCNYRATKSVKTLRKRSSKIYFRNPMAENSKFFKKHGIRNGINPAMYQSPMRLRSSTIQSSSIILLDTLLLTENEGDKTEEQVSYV
The target of experiment [13] is Ephrin type-B receptor 3 (Homo sapiens) (UniProt P54753). Kind of experiment: EPHB3 SGC Tm panel (DSF). As to conditions: Compound concentration 20.0 uM.
Experiment [14] deals with T2, Zinc finger and BTB domain-containing protein 11 (Homo sapiens) (UniProt O95625).
T2 sequence (whole entry): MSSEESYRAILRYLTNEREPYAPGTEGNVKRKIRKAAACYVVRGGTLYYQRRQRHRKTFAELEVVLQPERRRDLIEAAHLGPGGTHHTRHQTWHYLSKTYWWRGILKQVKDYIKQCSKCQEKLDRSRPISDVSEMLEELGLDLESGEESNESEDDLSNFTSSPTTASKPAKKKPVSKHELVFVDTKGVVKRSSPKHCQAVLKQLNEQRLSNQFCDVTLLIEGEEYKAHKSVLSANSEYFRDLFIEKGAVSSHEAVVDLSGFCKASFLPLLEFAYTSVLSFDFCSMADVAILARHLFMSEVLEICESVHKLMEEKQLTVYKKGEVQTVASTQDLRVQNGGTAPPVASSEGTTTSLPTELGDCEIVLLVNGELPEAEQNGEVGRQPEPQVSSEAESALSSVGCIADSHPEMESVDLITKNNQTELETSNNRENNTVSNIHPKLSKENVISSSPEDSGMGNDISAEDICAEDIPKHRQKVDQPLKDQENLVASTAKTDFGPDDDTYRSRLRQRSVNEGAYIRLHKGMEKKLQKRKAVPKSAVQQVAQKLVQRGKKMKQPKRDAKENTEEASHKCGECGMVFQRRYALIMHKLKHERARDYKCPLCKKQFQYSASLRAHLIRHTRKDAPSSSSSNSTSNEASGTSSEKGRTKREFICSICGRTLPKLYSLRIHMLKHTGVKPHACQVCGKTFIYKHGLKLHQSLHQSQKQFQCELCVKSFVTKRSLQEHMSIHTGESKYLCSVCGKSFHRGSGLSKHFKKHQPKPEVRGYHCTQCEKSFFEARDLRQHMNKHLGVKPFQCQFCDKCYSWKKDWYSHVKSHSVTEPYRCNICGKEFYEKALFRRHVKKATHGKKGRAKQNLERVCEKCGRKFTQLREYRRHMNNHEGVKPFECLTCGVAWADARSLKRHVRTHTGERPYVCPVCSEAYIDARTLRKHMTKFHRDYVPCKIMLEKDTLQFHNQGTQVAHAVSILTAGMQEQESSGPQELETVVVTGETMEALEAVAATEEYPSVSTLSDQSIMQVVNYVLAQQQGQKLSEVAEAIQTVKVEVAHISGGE
As to conditions: SUD4, Compound concentration 1.0 uM.

Experiment [15] addresses B-cell lymphoma 6 protein (Homo sapiens, UniProt P41182). Conditions: SUD4, Compound concentration 1.0 uM.
The target in experiment [16] is Ephrin type-A receptor 2 (Homo sapiens) (UniProt P29317). In words: EPHA2 SGC Tm panel (DSF). Conditions: Compound concentration 20.0 uM.
Ephrin type-A receptor 2 (Homo sapiens), sequence (P29317 whole entry): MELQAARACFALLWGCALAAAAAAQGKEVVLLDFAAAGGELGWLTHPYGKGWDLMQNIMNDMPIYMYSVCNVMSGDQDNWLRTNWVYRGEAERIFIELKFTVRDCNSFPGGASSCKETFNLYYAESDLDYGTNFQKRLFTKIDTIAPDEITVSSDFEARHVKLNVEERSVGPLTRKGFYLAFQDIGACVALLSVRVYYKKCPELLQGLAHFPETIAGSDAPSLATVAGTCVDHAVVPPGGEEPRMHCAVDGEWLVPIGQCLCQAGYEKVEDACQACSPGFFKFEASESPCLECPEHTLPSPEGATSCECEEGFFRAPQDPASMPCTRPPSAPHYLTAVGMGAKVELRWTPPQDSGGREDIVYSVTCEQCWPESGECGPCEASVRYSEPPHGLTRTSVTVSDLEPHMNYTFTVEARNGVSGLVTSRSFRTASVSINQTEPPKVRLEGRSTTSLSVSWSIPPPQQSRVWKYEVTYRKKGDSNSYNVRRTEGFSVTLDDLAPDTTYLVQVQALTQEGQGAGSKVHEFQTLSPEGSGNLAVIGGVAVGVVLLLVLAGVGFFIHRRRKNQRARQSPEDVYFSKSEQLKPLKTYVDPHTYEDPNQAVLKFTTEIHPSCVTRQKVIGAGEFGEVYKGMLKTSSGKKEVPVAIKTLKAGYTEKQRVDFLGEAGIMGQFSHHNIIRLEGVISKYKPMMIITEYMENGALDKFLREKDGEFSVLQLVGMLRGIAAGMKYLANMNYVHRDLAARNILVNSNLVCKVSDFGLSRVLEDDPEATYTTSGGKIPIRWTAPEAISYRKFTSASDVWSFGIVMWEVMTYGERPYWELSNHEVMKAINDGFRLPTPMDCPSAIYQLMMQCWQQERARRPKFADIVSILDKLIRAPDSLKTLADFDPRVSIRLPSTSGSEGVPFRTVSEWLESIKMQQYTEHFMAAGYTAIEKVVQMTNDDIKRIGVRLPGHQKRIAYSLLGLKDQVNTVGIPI
The target in experiment [17] is Death-associated protein kinase 3 (Homo sapiens) (UniProt O43293). Kind of experiment: DAPK3 SGC Tm panel (DSF). As to conditions: Compound concentration 20.0 uM.
Experiment [18] addresses Calcium/calmodulin-dependent protein kinase type IV (Homo sapiens) (UniProt Q16566). In words: CAMK4 SGC Tm panel (DSF). Conditions: Compound concentration 20.0 uM.
Experiment [19] concerns the target Peripheral plasma membrane protein CASK (Homo sapiens) (UniProt O14936). In words: CASK SGC Tm panel (DSF). Conditions: Compound concentration 20.0 uM.
Experiment [20] deals with Calcium/calmodulin-dependent protein kinase type II subunit delta (Homo sapiens) (UniProt Q13557). Kind of experiment: CAMK2D SGC Tm panel (DSF). Conditions: Compound concentration 20.0 uM.
Experiment [21] deals with Zinc finger and BTB domain-containing protein 21 (Homo sapiens) (UniProt Q9ULJ3). As to conditions: SUD4, Compound concentration 1.0 uM.
Zinc finger and BTB domain-containing protein 21 (Homo sapiens), sequence (Q9ULJ3 whole entry, the tested form may be a part): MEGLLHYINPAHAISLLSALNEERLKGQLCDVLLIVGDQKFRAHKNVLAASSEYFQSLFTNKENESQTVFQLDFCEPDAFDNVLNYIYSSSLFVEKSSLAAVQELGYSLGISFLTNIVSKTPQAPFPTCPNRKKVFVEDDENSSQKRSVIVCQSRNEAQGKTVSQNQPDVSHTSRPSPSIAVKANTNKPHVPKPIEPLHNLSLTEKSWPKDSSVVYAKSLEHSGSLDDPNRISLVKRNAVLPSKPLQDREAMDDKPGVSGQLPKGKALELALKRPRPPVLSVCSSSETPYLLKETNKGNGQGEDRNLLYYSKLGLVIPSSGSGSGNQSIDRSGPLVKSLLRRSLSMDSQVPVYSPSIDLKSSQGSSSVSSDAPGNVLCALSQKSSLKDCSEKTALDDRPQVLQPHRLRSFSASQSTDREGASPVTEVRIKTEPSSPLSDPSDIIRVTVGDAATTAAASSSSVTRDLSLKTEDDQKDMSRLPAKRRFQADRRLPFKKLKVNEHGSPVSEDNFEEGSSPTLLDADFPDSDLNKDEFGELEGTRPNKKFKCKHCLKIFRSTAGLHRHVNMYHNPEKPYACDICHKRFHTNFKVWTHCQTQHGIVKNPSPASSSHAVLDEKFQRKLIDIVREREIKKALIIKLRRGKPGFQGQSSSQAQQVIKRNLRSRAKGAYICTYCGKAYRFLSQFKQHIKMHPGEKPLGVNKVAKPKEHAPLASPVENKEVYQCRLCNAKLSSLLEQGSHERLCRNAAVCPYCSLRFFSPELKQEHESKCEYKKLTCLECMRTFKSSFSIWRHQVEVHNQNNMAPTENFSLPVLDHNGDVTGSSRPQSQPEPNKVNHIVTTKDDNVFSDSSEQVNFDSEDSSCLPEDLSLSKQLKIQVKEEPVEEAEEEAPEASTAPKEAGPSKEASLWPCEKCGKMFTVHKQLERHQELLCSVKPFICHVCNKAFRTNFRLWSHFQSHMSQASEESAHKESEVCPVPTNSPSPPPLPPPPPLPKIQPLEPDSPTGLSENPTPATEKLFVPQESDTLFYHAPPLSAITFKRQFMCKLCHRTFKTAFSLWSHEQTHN
Experiment [22] deals with Myotonin-protein kinase (Homo sapiens) (UniProt Q09013). Kind of experiment: DMPK1 SGC Tm panel (DSF). As to conditions: Compound concentration 20.0 uM.

Peripheral plasma membrane protein CASK (Homo sapiens), sequence (O14936 whole entry): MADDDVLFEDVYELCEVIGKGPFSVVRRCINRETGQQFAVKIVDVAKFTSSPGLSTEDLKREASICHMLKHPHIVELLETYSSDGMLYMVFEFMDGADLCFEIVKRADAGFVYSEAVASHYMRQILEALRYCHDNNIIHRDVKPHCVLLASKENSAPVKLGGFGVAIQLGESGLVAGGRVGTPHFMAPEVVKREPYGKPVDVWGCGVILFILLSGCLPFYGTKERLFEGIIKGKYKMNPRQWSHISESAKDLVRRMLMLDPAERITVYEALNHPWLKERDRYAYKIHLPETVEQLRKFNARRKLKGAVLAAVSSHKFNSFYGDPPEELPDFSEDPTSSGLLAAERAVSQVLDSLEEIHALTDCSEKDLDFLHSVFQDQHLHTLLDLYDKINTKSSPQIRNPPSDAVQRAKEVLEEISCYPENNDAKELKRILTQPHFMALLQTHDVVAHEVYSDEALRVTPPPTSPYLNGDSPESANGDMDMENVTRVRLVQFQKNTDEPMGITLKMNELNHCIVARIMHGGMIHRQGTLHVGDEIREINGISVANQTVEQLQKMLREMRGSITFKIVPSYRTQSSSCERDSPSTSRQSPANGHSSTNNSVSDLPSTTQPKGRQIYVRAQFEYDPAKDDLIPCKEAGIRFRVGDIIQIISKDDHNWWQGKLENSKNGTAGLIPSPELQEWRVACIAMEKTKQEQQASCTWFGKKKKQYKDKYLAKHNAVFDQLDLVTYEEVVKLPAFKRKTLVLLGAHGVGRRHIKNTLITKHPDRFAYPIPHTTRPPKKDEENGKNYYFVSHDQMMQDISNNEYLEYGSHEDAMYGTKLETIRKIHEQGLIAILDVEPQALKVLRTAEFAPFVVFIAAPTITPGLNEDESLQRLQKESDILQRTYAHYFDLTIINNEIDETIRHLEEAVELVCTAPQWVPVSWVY
Dual specificity mitogen-activated protein kinase kinase 4 (Homo sapiens), sequence (P45985 whole entry): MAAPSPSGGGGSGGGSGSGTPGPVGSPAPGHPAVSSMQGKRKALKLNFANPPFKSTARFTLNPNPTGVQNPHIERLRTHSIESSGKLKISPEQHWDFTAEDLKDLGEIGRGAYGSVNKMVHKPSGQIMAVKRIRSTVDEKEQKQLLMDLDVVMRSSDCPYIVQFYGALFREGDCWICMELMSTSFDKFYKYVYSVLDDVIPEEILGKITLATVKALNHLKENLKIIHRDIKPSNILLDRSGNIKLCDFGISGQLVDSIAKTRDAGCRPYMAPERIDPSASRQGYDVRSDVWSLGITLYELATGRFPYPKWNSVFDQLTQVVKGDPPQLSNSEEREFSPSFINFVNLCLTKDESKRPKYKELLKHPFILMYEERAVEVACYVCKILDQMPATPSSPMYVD
Serine/threonine-protein kinase 17A (Homo sapiens), sequence (Q9UEE5 whole entry): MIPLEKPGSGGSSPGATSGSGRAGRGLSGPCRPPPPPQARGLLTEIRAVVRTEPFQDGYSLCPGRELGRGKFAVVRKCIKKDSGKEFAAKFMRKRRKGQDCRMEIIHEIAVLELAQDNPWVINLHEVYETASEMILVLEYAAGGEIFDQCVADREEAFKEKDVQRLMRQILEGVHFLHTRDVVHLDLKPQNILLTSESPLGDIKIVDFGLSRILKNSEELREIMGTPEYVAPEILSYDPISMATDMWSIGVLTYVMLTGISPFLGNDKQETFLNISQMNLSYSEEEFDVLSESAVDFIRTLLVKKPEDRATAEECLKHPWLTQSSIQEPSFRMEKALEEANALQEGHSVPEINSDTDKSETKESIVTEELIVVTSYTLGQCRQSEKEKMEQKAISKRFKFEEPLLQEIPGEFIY

With `C[C@@H]1CN(c2ncc(Cl)c(Nc3ccc4c(c3)n(CCC(C)(C)O)c(=O)n4C)n2)C[C@H](C)C1(F)F`, the Tm is 45 °C in experiment [1]; 41 °C in experiment [5]; 42 °C in [8]; 46 °C in experiment [9]; 46 °C in experiment [10]; 52 °C in experiment [13]. In addition, the Tm in [16] was 46 °C; in [17], 39 °C; in experiment [18], 48 °C; in experiment [19] it was 68 °C; in experiment [20], 47 °C; in [22], 50 °C. In addition, the LogFC in experiment [2] is 0.0229; in experiment [11], 0.0294; in experiment [14], 0.0341; in [15], -1.2; in experiment [21] it was 0.0103. For the same compound, the inhibition is -3.49% in experiment [3]; 12.4% in [4]; 47.4% in experiment [6]; 0.77% in [7]; 34.6% in experiment [12].

For orientation: Tm means the temperature at the midpoint of the melting transition. For orientation: inhibition means the drop in the measured response relative to a control, in per cent.
